According to paper PMC12648656, “Palladium(II) Complexes with Noncovalent Interactions with DNA: Solution Speciation Controlled by Solvent Identity, pH, and Concentration” (Inorganic Chemistry, 2025):
≈ marks a conversion by molar mass, not a printed value. Where two headings read alike, the source gives them in different places.

How the values were obtained:
[1] = test system: Klebsiella pneumoniae; assay: Antibacterial MIC, broth dilution; type: cell-based; details: 18 h
Description: (§1) Antibacterial activity was determined for the title compounds in various Gram-negative and Gram-positive bacterial strains, namely Klebsiella pneumoniae, Escherichia coli (ATCC 25922), Staphylococcus aureus (272123), methicillin-resistant Staphylococcus aureus (ATCC 43300), and Enterococcus faecalis (ATCC 29212). The stock solutions of the tested compounds were prepared in DMSO at a 5 mM concentration. […] All stock solutions were diluted in 100 μL of Mueller Hinton Broth, and then two-fold serial dilutions were performed. Then, a 10^–4 dilution of an overnight bacterial culture in 100 μL of medium was added to each well, except for the medium control wells. The highest concentration of the compounds in the tested samples was 100 μM. The plates were incubated at 37 °C for 18 h. After that, the MIC values were determined by visual inspection.

[2] = test system: Staphylococcus aureus (272123); assay: Antibacterial MIC, broth dilution; type: cell-based; details: 18 h
Description: as §1

[3] = test system: Enterococcus faecalis (ATCC 29212); assay: Antibacterial MIC, broth dilution; type: cell-based
Description: as §1

[4] = test system: Escherichia coli (ATCC 25922); assay: Antibacterial MIC, broth dilution; type: cell-based
Description: as §1

[5] = test system: methicillin-resistant Staphylococcus aureus (ATCC 43300); assay: microbe, parasite or virus in culture; type: cell-based; details: 18 h
Description: as §1

[6] = n-Octanol/water and n-octanol/Tris buffer shake-flask partitioning; type: physicochemical
Description: The distribution coefficient values (D 7.4) of the compounds were determined by the traditional shake-flask method in n-octanol/buffered aqueous solution at pH 7.40 for 5 mM Tris HCl with 0.1 M KCl and at pH 7.4 at 25.0 ± 0.2 °C. The ligand and complexes were dissolved in n-octanol (presaturated by the aqueous buffer) because of the very low aqueous solubility. The aqueous buffer solution and n-octanol ratio was 1:1 due to the expected high lipophilicity of the compounds. First, samples were mixed with vertical rotation (∼20 rpm) for 3 h, and then the two phases were separated by centrifugation at 3000 rpm (∼1000g) for 3 min. After separation, UV–vis spectra of the compounds were recorded in both phases. Spectra of the n-octanol phases were compared to those of the original n-octanol stock solutions.
The distribution coefficient values were also determined using unbuffered water and octanol (also presaturated) with a ratio of 1:1.

[7] = Spectrophotometric (UV-vis) pH titrations for proton dissociation constants; type: physicochemical; details: I = 0.10 M (KCl), 25.0 °C
Description: Spectrophotometric titrations were applied to study the equilibrium processes (proton dissociation and complex dissociation/formation) in DMSO/H2O mixtures due to the limited aqueous solubility of the compounds. The calibration of the electrode system was performed by strong acid–strong base pH-potentiometric titrations in 30% (v/v) and 60% (v/v) DMSO/H2O solvent mixtures at 25.0 ± 0.1 °C as described in our previous works. , KCl (0.1 M) was the supporting electrolyte to maintain constant ionic strength, which refers to the chloride ion concentration in blood plasma. […] The initial sample volume was 5 mL. Spectrophotometric titrations were performed in the pH range 1.8–12.5 for 30% (v/v) DMSO/H2O medium and 1.8–14.0 for 60% (v/v) DMSO/H2O medium. Prior to the titrations, purified argon was passed through the samples for approximately 10 min to remove CO2 traces, and argon was also passed over the samples during these measurements. The proton dissociation constants were calculated by using the computer program PSEQUAD.

[8] = Solubility observations; type: physicochemical; details: as observed; aqueous solution for HL
[9] = test system: MCF7 human breast cancer cell line; assay: In vitro cytotoxicity, MTT; type: cell-based; details: Homo sapiens; MCF7, 72 h exposure
Description: (§2) Cell culture reagents were obtained from Merck, and plasticware was obtained from Sarstedt. Human colon adenocarcinoma cell line Colo 205 (ATCC CCL-222) and MCF7 (ATCC HTB-22) breast cancer cells were purchased from LGC Promochem. Cancer cells were cultured in RPMI 1640 medium supplemented with 10% heat-inactivated fetal bovine serum, 2 mM L-glutamine, and 1 mM sodium pyruvate and buffered with 100 mM HEPES. The cells were incubated at 37 °C in a 5% CO2, 95% air atmosphere and were detached with Trypsin-Versene (EDTA) solution for 5 min at 37 °C.
(§3) The tested ligands were dissolved in DMSO, and the stock solutions (5 mM) were diluted in complete culture medium. Two-fold serial dilutions of compounds were made in 100 μL of the medium, horizontally. The semiadherent colon adenocarcinoma cells were treated with Trypsin-Versene (EDTA) solution. They were adjusted to a density of 1 × 10^4 cells in 100 μL of RPMI 1640 medium and were added to each well, with the exception of the medium control wells. The final volume of the wells containing compounds and cells was 200 μL. The plates containing the cells were incubated at 37 °C for 72 h; at the end of the incubation period, 20 μL of MTT solution (5 mg/mL) was added to each well. After incubation at 37 °C for 4 h, 100 μL of sodium dodecyl sulfate solution (10% in 0.01 M HCl) was added to each well, and the plates were further incubated at 37 °C overnight. Cell growth was determined by measuring the optical density (OD) at 540 and 630 nm with a Multiskan EX plate reader (Thermo Labsystems).
(§4) Curves for the data obtained on cancer cells were fitted by GraphPad Prism software using the sigmoidal dose–response model (comparing variable and fixed slopes). The IC50 values were always obtained from at least three independent experiments.

[10] = test system: Colo 205 human colon cancer cell line; assay: In vitro cytotoxicity, MTT; type: cell-based; details: Colo 205, 72 h exposure
Description: as §2, §3, §4

[11] = biological target: T1, hen egg white lysozyme (HEWL) (Gallus gallus, UniProt P00698); assay: Reaction with lysozyme followed by UV-vis at 280 nm, pseudo-first-order kinetics; type: binding; details: metal:protein 3:1, 5 mM Tris/3% DMSO, 37 °C, absorbance at 280 nm
T1 construct: a model protein, namely HEWL (hen egg white lysozyme), was also studied; from tissue; host or cells: hen egg white (from the protein's name)
Description: The interaction of complexes (2) and (3) with hen egg white lysozyme (HEWL) was investigated using a 10^–5 M solution of the protein. Lysozyme is a widely used model protein for studying the binding of potential metallodrugs. The sample preparation for this assay was carried out using the same protocol of the samples for the DNA interactions studies by UV–vis spectrophotometry. The integrity of the enzyme was checked in each experiment, with a comparison of fresh and incubated samples. UV–vis spectra were recorded before and after incubation with the complex (dissolved in 97% 5 mM Tris/3% DMSO) for 24 h at 37 °C. A metal to protein ratio of 3:1 was used for these studies, a ratio that affords similar results to 10:1 and eases the sample preparation. The experimental time-dependent profiles of the spectra were analyzed as pseudo-first-order reactions by plotting the variation of the absorbance as a function of time.

[12] = test system: pBR322 plasmid DNA; assay: Agarose gel electrophoresis mobility shift; type: binding; details: r i 0.01 to 0.20, 24 h, 37 °C
Description: Complexes (2) and (3) were incubated at 37 °C with a concentration of 0.0625 μg/μL pBR322 plasmid DNA at different concentrations expressed as r i = complex:DNA (base pair) ratio. The r i used was from 0.01 to 0.20, in a total volume of 20 μL. After an incubation period of 24 h, the mobility of the complex-treated pBR322 samples was analyzed by gel electrophoresis at 70 V in Tris/acetate/EDTA buffer. A control of pBR322 was also incubated, and a 1 kb ladder aliquot was loaded into lane 1 of the gel. The gel was stained with an ethidium bromide aqueous solution, and DNA bands were visualized with a UV-transilluminator UVITEC Cambridge UVIDOC HD2 instrument. The studies were performed with 3% (v/v) DMSO as the final solution.

[13] = test system: calf thymus-DNA (CT-DNA); assay: UV-vis titration with CT-DNA; type: binding; details: complex/DNA ratio 0 to 0.79; 5 mM Tris, 50 mM NaCl, pH 7.40, 25 °C
Description: To investigate the potential binding ability of the palladium complexes (2) and (3) with DNA, UV–vis titrations (240 to 700 nm) were performed at room temperature. During the titrations, the CT-DNA concentration (5.08 × 10^–5 M) was kept constant, while the concentration of each complex (0 to 2.00 × 10^–5 M) was varied. The changes in the typical absorbance of CT-DNA at 260 nm were monitored after equilibration (10 min) and after 1 h of incubation at 37 °C. […] Control experiments with DMSO were performed, and no changes in the CT-DNA spectrum were observed.

[14] = test system: glutathione (GSH); assay: Reaction with glutathione followed by UV-vis; details: 30-fold GSH, ~20 μM complex, 60% (v/v) DMSO/phosphate buffer pH 7.4, 25.0 °C
Description: Reactions between the title compounds and GSH were also followed by UV–vis spectrophotometry under an inert atmosphere to overcome oxidation of GSH by air oxygen. Samples contained the metal complexes at low concentrations (∼20 μM) and were prepared using 60% (v/v) DMSO/phosphate buffer solution (pH 7.4) to avoid precipitation. The reactants were separated in the pockets of a tandem cuvette, followed by deoxygenation by argon bubbling. The separate solutions were mixed at 1:30 metal complex:GSH molar ratios, and UV–vis spectra were recorded. Argon was continuously passed over the sample during the whole measurement.

[15] = test system: calf thymus-DNA (CT-DNA); assay: Viscometry with CT-DNA; type: binding; details: compound/DNA ratios 0.0 to 1.0; 5 mM Tris, 100 mM NaCl, pH 7.40, 25.0 °C
Description: […] Then, the samples were incubated at 37 °C and with constant shaking at 300 rpm for 10 min and 1 h. After each incubation, the viscosity was measured at a constant temperature of 25.0 ± 0.2 °C in a vibrational viscometer. The relative viscosity was calculated by taking the mean values of three replicate measurements, and the values were represented by plotting the values of relative viscosity of CT-DNA (η/η0)^1/3 against 1/R.

[16] = Enterococcus faecalis, ATCC29212, 18 h
[17] = Escherichia coli, ATCC25922, 18 h
[18] = Staphylococcus aureus, ATCC 43300 / MRSA

T1 sequence (P00698 19-147): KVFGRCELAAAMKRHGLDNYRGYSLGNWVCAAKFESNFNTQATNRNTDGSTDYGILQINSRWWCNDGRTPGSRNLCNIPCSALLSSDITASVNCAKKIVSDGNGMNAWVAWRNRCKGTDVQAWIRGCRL

Compound: O=C(O)c1cn(C2CC2)c2cc(N3CCNCC3)c(F)cc2c1=O [ciprofloxacin, reference compound]
- MIC ([1]; Klebsiella pneumoniae): 0.235 µM (≈ 0.078 µg/mL)
- MIC ([2]; Staphylococcus aureus): 1.89 µM (≈ 0.625 µg/mL)
- MIC [3, 16]: 1.89 µM (≈ 0.625 µg/mL)
- MIC [4, 17]: 0.235 µM (≈ 0.078 µg/mL)
- MIC [5, 18]: > 15.1 µM

Compound: S=C(N/N=C/c1c[nH]cn1)Nc1ccc(Cl)cc1 [HL, 1H-Imidazole-4-carboxaldehyde(4N-p-chlorophenyl)thiosemicarbazone]
- logD ([6]; n-octanol/Tris HCl buffer, pH 7.4, n-octanol/5 mM Tris HCl with 0.1 M KCl, pH 7.40, 25.0 °C, read-out: log D o/t): 1.58
- logD ([6]; n-octanol/pure (unbuffered) water, 1:1, read-out: log D o/w): 0.9
- MIC ([1]; Klebsiella pneumoniae): > 100 µM
- MIC ([2]; Staphylococcus aureus): 100 µM (≈ 28 µg/mL)
- MIC [3, 16]: 100 µM (≈ 28 µg/mL)
- MIC [4, 17]: 25 µM (≈ 6.99 µg/mL)
- MIC [5, 18]: 50 µM (≈ 14 µg/mL)
- pKa ([7]; 30% (v/v) DMSO/H2O solvent mixture, 30% (v/v) DMSO/H2O, read-out: pKa1): 4.38 ± 0.03
- pKa ([7]; 30% (v/v) DMSO/H2O solvent mixture, 30% (v/v) DMSO/H2O, read-out: pKa2): 10.96 ± 0.04
- pKa ([7]; 60% (v/v) DMSO/H2O solvent mixture, 60% (v/v) DMSO/H2O, read-out: pKa1): 3.81 ± 0.02
- pKa ([7]; 60% (v/v) DMSO/H2O solvent mixture, 60% (v/v) DMSO/H2O, read-out: pKa2): 11.12 ± 0.01
- pKa ([7]; pure water (0% DMSO), predicted value, 0% DMSO (pure water), predicted value, read-out: pKa1): 4.58
- pKa ([7]; pure water (0% DMSO), predicted value, 0% DMSO (pure water), predicted value, read-out: pKa2): 10.9
- solubility [8]: poor solubility
- IC50 [9]: 2970 ± 320 nM
- IC50 ([10]; Homo sapiens): 19.1 ± 0.6 µM

Compound: COc1cccc2c1C(=O)c1c(O)c3c(c(O)c1C2=O)C[C@@](O)(C(=O)CO)C[C@@H]3O[C@H]1C[C@H](N)[C@H](O)[C@H](C)O1 [Doxorubicin, reference compound]
- IC50 [9]: 128 ± 0.9 nM
- IC50 ([10]; Homo sapiens): 0.158 ± 0.004 µM

Compound: Chlorido(dimethyl sulfoxide)(1H-imidazole-4-carboxaldehyde-4N-p-chlorophenylthiosemicarbazonato)palladium(II) [(3)]
- observed rate constant k obs [11]: (8.75 ± 0.09) × 10^–5 s^–1
- MIC ([1]; K. pneumoniae, 37 °C): > 100 µM
- MIC ([2]; S. aureus, 37 °C): > 100 µM
- MIC ([3]; E. faecalis, 18 h, 37 °C): > 100 µM
- MIC ([4]; E. coli, 18 h, 37 °C): > 100 µM
- effect on electrophoretic mobility of supercoiled pBR322 (pure form) [12]: small unwinding
- MIC ([5]; S. aureus (MRSA), 37 °C): > 100 µM
- change of CT-DNA absorption at 260 nm [13]: absorption values of DNA–complex samples increase
- time to equilibrium of the reaction with GSH [14]: ≤ 30 min
- IC50 [10]: 16.2 ± 1.18 µM

Compound: CC[n+]1c(-c2ccccc2)c2cc(N)ccc2c2ccc(N)cc21 [ethidium bromide]
- effect on relative viscosity of CT-DNA [15]: increases the dynamic viscosity

Compound: CNC(C)C1CCC(N)C(OC2C(N)CC(N)C(OC3OCC(C)(O)C(NC)C3O)C2O)O1 (stereo not drawn) [gentamicin, reference compound]
- MIC ([1]; Klebsiella pneumoniae): 2.62 µM (≈ 1.25 µg/mL)
- MIC ([2]; Staphylococcus aureus): 10.5 µM (≈ 5 µg/mL)
- MIC [3, 16]: 10.5 µM (≈ 5 µg/mL)
- MIC [4, 17]: 5.24 µM (≈ 2.5 µg/mL)
- MIC [5, 18]: > 10.5 µM
